Patent US9737075B2, “Synergistic benzoxaborole-containing anti-fungicidal composition” (The Penn State Research Foundation, priority 2015, dated 2017)
Values after ≈ are worked out from the molar mass of the structure shown.

How the values were obtained:
Format in all cases: cell-based
[1] = system: Fusarium verticillioides; experiment: Broth microdilution MIC of individual antifungals; conditions: individual antifungal, 25% PDB, about 25° C., 72 hours, range over N independent triplicate studies, read-out: Independent MIC
[2] = system: Fusarium solani f. sp. pisi (MP VI); experiment: Broth microdilution MIC of individual antifungals; conditions: Fusarium solani f. sp. pisi (MP VI); individual antifungal, 25% PDB, about 25° C., 72 hours; range over N independent triplicate studies; read-out: Independent MIC
[3] = system: Mucor sp.; experiment: Broth microdilution MIC of individual antifungals; conditions: individual antifungal, 25% PDB, about 25° C., 72 hours, range over N independent triplicate studies
[4] = system: Mycosphaerella zeae-maydis; experiment: Broth microdilution MIC of individual antifungals; conditions: Didymella maydis, individual antifungal, 25% PDB, about 25° C., 72 hours, range over N independent triplicate studies
[5] = system: Rhizopus sp.; experiment: Broth microdilution MIC of individual antifungals; conditions: Rhizopus, 72 h, Rhizopus sp.; individual antifungal, 25% PDB, about 25° C., 72 hours; range over N independent triplicate studies; read-out: Independent MIC
[6] = system: Alternaria solani; experiment: Broth microdilution MIC of individual antifungals; conditions: individual antifungal, 25% PDB, about 25° C., 72 hours, range over N independent triplicate studies, read-out: Independent MIC
[7] = system: Aspergillus fumigatus; experiment: Broth microdilution MIC of individual antifungals; conditions: individual antifungal, 25% PDB, about 25° C., 72 hours, range over N independent triplicate studies, read-out: Independent MIC
[8] = system: Aspergillus flavus; experiment: Broth microdilution MIC of individual antifungals; conditions: individual antifungal, 25% PDB, about 25° C., 72 hours, range over N independent triplicate studies, read-out: Independent MIC
[9] = system: Aspergillus niger; experiment: Broth microdilution MIC of individual antifungals; conditions: individual antifungal, 25% PDB, about 25° C., 72 hours, range over N independent triplicate studies, read-out: Independent MIC
[10] = system: Botrytis cinerea 10-1728; experiment: Broth microdilution MIC of individual antifungals; conditions: 101728; Botrytis cinerea 10-1728; individual antifungal, 25% PDB, about 25° C., 72 hours; range over N independent triplicate studies; read-out: Independent MIC
[11] = system: Fusarium oxysporum ST33; experiment: Broth microdilution MIC of individual antifungals; conditions: individual antifungal, 25% PDB, about 25° C., 72 hours, range over N independent triplicate studies
[12] = system: Aureobasidium pullulans; experiment: Broth microdilution MIC of individual antifungals; conditions: individual antifungal, 25% PDB, about 25° C., 72 hours, range over N independent triplicate studies, read-out: Independent MIC
[13] = system: Stachybotrys chartarum; experiment: Broth microdilution MIC of individual antifungals; conditions: individual antifungal, 25% PDB, about 25° C., 72 hours, range over N independent triplicate studies, read-out: Independent MIC
[14] = system: Fusarium oxysporum f. sp. lycopersici; experiment: Broth microdilution MIC of individual antifungals; conditions: individual antifungal, 25% PDB, about 25° C., 72 hours, range over N independent triplicate studies
[15] = system: Sclerotinia homoeocarpa; experiment: Broth microdilution MIC of individual antifungals; conditions: Clarireedia homoeocarpa; Sclerotinia homoeocarpa; individual antifungal, 25% PDB, about 25° C., 72 hours; range over N independent triplicate studies; read-out: Independent MIC
[16] = system: two dozen different fungal organisms; experiment: Broth microdilution MIC, summary over the organisms examined; conditions: by itself, against the organisms examined (Table 1); regularly
Protocol: All antifungal susceptibility assays were conducted in triplicate and N independent times. Thus, the inhibition studies were conducted a total of 3·N times. […] Thus, each synergy assay (combination of two antifungals) was conducted in conjunction with independent MIC determination. FICI values were calculated by comparing the inhibition activity of the combination (benzoxaborole+another antifungal) against the efficacy of the individual antifungal within the same experiment (using the same experimental conditions).
The studies were performed in flat bottom, 96-well microtiter plates (Greiner Bio-One).
Plates sealed with clear polyester film (VWR) were incubated at a temperature of about 25° C. The progress of fungal growth was monitored at 48 hours, 72 hours, 7 days, and 15 days. […] In order to establish appropriate comparison between the different fungi, the FICI (thus, the MICs used) determination was done at 72 hours for all cases discussed herein.
The MICs of the individual antifungals (MICBoron and MICA) and in combination (MICBA) were determined after 72 hours of incubation. […] MICA is defined as the MIC value of every other individual non-benzoxaborole-based antifungal. MICBA is defined as the MIC value when the benzoxaborole antifungal is combined with another non-benzoxaborole antifungal. […] The combination studies were performed in triplicate in flat bottom 96-well microtiter plates with a final media volume of 0.2 mL/well.

[17] = system: Botrytis cinerea B17; experiment: Broth microdilution MIC of individual antifungals; conditions: Botrytis cinerea B17; individual antifungal, 25% PDB, about 25° C., 72 hours; range over N independent triplicate studies; read-out: Independent MIC
[18] = system: Phytophthora pini; experiment: Broth microdilution MIC of individual antifungals; conditions: individual antifungal, 25% PDB, about 25° C., 72 hours, range over N independent triplicate studies
[19] = system: Pythium aphanodermatum; experiment: Broth microdilution MIC of individual antifungals; conditions: individual antifungal, 25% PDB, about 25° C., 72 hours, range over N independent triplicate studies
[20] = system: Colletotrichum orbiculare; experiment: Broth microdilution MIC of individual antifungals; conditions: individual antifungal, 25% PDB, about 25° C., 72 hours, range over N independent triplicate studies, read-out: Independent MIC
[21] = system: Magnaporthe grisea; experiment: microbe, parasite or virus in culture; conditions: Pyricularia oryzae, 72 h, read-out: Independent MIC
[22] = system: Candida albicans; experiment: Broth microdilution MIC of individual antifungals; conditions: individual antifungal, 25% PDB, about 25° C., 72 hours, range over N independent triplicate studies, read-out: Independent MIC
[23] = system: Fusarium graminearum; experiment: microbe, parasite or virus in culture; conditions: Fusarium graminearum, 72 h, read-out: Independent MIC
[24] = system: Rhizoctonia solani; experiment: Broth microdilution MIC of individual antifungals; conditions: individual antifungal, 25% PDB, about 25° C., 72 hours, range over N independent triplicate studies, read-out: Independent MIC
[25] = system: Penicillium chrysogenum; experiment: Broth microdilution MIC of individual antifungals; conditions: individual antifungal, 25% PDB, about 25° C., 72 hours, range over N independent triplicate studies, read-out: Independent MIC

SMILES	MIC [1] [µg/mL]	MIC [2] [µg/mL]	MIC [3] [µg/mL]	MIC [4] [µg/mL]	MIC [5] [µg/mL]	MIC [6] [µg/mL]	MIC [7] [µg/mL]	MIC [8] [µg/mL]	MIC [9] [µg/mL]	MIC [10] [µg/mL]	MIC [11] [µg/mL]	MIC [12] [µg/mL]	MIC [13] [µg/mL]	MIC [14] [µg/mL]	MIC [15] [µg/mL]	MIC [16] [µg/mL]	MIC [17] [µg/mL]	MIC [19] [µg/mL]	MIC [20] [µg/mL]	MIC [21] [µg/mL]	further results
Cc1ccc2c(c1)COB2O [B1, 5-Methyl-1,3-dihydro-2,1-benzoxaborol-1-ol]	0.5	2	1	16	16	1	0.25	2	2	2	1	1	0.5	1	1	≤ 4	2	–	–	–	–
OB1OCc2cc(Cl)ccc21 [B18, 5-chloro-1,3-dihydro-2,1-benzoxaborol-1-ol]	0.25 to 0.5	0.5	0.5 to 1	4 to 8	0.5 to 2	0.5	0.125 to 0.25	0.5 to 1	0.5 to 2	0.5 to 2	0.5	0.125	0.25 to 1	0.25	1 to 4	≤ 4	0.5	0.25 to 2	0.78	0.39 to 1.56 (≈ 2.32 to 9.26 µM)	MIC [18]: 0.125 µg/mL; MIC [22]: 0.5 to 1 µg/mL; MIC [23]: 1 µg/mL (≈ 5.94 µM); MIC [24]: 1.56 to 8 µg/mL; MIC [25]: 0.19 to 0.38 µg/mL
OB1OCc2cc(F)ccc21 [B90, 5-Fluoro-1,3-dihydro-2,1-benzoxaborol-1-ol]	0.25 to 0.4	0.5 to 1	0.25	1 to 8	1 to 2	0.25 to 0.5	0.063 to 0.125	0.5 to 1	0.25 to 1	0.25 to 0.5	0.25 to 0.5	0.25 to 0.5	0.25 to 0.5	0.25 to 0.5	0.25 to 1	≤ 4	0.5 to 2	2 to 4	0.78 to 1.56	1.25 to 2 (≈ 8.23 to 13.2 µM)	MIC [22]: 0.5 µg/mL; MIC [23]: 0.5 to 2 µg/mL (≈ 3.29 to 13.2 µM); MIC [24]: 1.56 to 8 µg/mL; MIC [25]: 0.19 to 0.39 µg/mL
